# Source: the kinase profiling compilation of Christmann-Franck et al. (2016)
# Several values for one entry are separate records, joined by “and”; a condition that tells them apart may be missing. Equal values may be shown once.
# Columns and labels:
# ALK (human) = ALK (human) (UniProt Q9UM73); test: KINOMEscan competition binding; conditions: compound 10.0 µM
# CAMKK2 (human) = CAMKK2 (human) (UniProt Q96RR4); test: KINOMEscan competition binding; conditions: compound 10.0 µM
# DAPK2 (human) = DAPK2 (human) (UniProt Q9UIK4); test: KINOMEscan competition binding; conditions: compound 10.0 µM
# DAPK3 (human) = DAPK3 (human) (UniProt O43293); test: KINOMEscan competition binding; conditions: compound 10.0 µM
# DCLK1 (human) = DCLK1 (human) (UniProt O15075); test: KINOMEscan competition binding; conditions: compound 10.0 µM
# EGFR (human) = EGFR (human) (UniProt P00533); test: KINOMEscan competition binding; conditions: compound 10.0 µM
# [1] = tested on: EGFR (human), P00533 [747-751 del / S ins]; test: KINOMEscan competition binding; conditions: compound 10.0 µM
# [2] = tested on: EGFR (human), P00533 [752-759 del]; test: KINOMEscan competition binding; conditions: compound 10.0 µM
# [3] = tested on: EGFR (human), P00533 [A750P; 747-749 del]; test: KINOMEscan competition binding; conditions: compound 10.0 µM
# [4] = tested on: EGFR (human), P00533 [G719C; 746-750 del]; test: KINOMEscan competition binding; conditions: compound 10.0 µM
# [5] = tested on: EGFR (human), P00533 [G719S]; test: KINOMEscan competition binding; conditions: compound 10.0 µM
# [6] = tested on: EGFR (human), P00533 [L858R]; test: KINOMEscan competition binding; conditions: compound 10.0 µM
# [7] = tested on: EGFR (human), P00533 [L861Q]; test: KINOMEscan competition binding; conditions: compound 10.0 µM
# [8] = tested on: EGFR (human), P00533 [P753S; 747-752 del]; test: KINOMEscan competition binding; conditions: compound 10.0 µM
# FER (human) = FER (human) (UniProt P16591); test: KINOMEscan competition binding; conditions: compound 10.0 µM
# FGFR4 (human) = FGFR4 (human) (UniProt P22455); test: KINOMEscan competition binding; conditions: compound 10.0 µM
# GAK (human) = GAK (human) (UniProt O14976); test: KINOMEscan competition binding; conditions: compound 10.0 µM
# IGF1R (human) = IGF1R (human) (UniProt P08069); test: KINOMEscan competition binding; conditions: compound 10.0 µM
# INSR (human) = INSR (human) (UniProt P06213); test: KINOMEscan competition binding; conditions: compound 10.0 µM
# INSRR (human) = INSRR (human) (UniProt P14616); test: KINOMEscan competition binding; conditions: compound 10.0 µM
# MET (human) = MET (human) (UniProt P08581); test: KINOMEscan competition binding; conditions: compound 10.0 µM
# MKNK2 (human) = MKNK2 (human) (UniProt Q9HBH9); test: KINOMEscan competition binding; conditions: compound 10.0 µM
# MYLK (human) = MYLK (human) (UniProt Q15746); test: KINOMEscan competition binding; conditions: compound 10.0 µM
# PLK1 (human) = PLK1 (human) (UniProt P53350); test: KINOMEscan competition binding; conditions: compound 10.0 µM
# PLK3 (human) = PLK3 (human) (UniProt Q9H4B4); test: KINOMEscan competition binding; conditions: compound 10.0 µM
# PLK4 (human) = PLK4 (human) (UniProt O00444); test: KINOMEscan competition binding; conditions: compound 10.0 µM
# PTK2 (human) = PTK2 (human) (UniProt Q05397); test: KINOMEscan competition binding; conditions: compound 10.0 µM
# PTK2B (human) = PTK2B (human) (UniProt Q14289); test: KINOMEscan competition binding; conditions: compound 10.0 µM
# RPS6KA2 KD2 (human) = RPS6KA2 KD2 (human) (UniProt Q15349); test: KINOMEscan competition binding; conditions: compound 10.0 µM
# SLK (human) = SLK (human) (UniProt Q9H2G2); test: KINOMEscan competition binding; conditions: compound 10.0 µM
# STK33 (human) = STK33 (human) (UniProt Q9BYT3); test: KINOMEscan competition binding; conditions: compound 10.0 µM
# TNK1 (human) = TNK1 (human) (UniProt Q13470); test: KINOMEscan competition binding; conditions: compound 10.0 µM
# TTK (human) [9] = molecular target: TTK (human) (UniProt P33981); test: KINOMEscan competition binding; conditions: for kinase still bound, per cent of control: compound 10.0 µM
# ULK2 (human) = ULK2 (human) (UniProt Q8IYT8); test: KINOMEscan competition binding; conditions: compound 10.0 µM
# TTK (human) [10] = molecular target: TTK (human) (UniProt P33981); test: SelectScreen, TR FRET
# TTK (human), sequence (P33981 whole entry, looked up): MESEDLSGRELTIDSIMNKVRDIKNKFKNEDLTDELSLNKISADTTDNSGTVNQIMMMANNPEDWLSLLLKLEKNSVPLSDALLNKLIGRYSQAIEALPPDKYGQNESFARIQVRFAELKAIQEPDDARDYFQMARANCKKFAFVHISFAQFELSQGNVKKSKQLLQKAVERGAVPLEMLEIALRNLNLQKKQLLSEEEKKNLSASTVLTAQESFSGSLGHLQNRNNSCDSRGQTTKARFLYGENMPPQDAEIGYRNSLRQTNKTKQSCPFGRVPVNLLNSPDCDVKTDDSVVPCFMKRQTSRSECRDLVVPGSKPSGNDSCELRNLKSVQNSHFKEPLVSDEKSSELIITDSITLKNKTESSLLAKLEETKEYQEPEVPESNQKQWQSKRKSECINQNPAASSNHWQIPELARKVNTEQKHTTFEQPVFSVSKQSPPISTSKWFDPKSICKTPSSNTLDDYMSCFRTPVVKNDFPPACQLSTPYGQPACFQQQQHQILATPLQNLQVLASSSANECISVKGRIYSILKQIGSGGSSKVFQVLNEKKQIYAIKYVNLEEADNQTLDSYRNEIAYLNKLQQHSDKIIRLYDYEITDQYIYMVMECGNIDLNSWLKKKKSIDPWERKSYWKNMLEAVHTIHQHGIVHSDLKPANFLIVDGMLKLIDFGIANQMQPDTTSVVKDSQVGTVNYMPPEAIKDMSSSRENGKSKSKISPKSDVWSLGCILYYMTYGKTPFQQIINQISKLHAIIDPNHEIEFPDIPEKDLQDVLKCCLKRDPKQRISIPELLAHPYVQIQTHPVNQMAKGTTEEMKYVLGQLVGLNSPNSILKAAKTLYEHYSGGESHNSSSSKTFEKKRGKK
# PLK1 (human), sequence (P53350 whole entry, looked up): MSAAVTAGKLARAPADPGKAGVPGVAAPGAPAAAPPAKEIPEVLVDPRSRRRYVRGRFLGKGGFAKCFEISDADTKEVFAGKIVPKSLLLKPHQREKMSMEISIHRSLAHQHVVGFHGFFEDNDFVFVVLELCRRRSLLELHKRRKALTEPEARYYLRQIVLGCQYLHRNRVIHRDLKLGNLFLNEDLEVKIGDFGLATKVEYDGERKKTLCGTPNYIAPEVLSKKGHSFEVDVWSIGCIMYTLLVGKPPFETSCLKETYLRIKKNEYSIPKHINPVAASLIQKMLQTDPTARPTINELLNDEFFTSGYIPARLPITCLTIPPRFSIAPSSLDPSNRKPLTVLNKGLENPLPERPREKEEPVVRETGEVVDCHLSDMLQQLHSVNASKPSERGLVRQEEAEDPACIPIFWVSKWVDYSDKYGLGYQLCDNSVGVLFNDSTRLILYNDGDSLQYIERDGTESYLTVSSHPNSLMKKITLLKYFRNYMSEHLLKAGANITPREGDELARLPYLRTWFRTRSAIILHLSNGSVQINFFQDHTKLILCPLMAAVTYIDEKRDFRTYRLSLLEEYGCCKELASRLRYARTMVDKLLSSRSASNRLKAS
# PTK2 (human), sequence (Q05397 whole entry, looked up): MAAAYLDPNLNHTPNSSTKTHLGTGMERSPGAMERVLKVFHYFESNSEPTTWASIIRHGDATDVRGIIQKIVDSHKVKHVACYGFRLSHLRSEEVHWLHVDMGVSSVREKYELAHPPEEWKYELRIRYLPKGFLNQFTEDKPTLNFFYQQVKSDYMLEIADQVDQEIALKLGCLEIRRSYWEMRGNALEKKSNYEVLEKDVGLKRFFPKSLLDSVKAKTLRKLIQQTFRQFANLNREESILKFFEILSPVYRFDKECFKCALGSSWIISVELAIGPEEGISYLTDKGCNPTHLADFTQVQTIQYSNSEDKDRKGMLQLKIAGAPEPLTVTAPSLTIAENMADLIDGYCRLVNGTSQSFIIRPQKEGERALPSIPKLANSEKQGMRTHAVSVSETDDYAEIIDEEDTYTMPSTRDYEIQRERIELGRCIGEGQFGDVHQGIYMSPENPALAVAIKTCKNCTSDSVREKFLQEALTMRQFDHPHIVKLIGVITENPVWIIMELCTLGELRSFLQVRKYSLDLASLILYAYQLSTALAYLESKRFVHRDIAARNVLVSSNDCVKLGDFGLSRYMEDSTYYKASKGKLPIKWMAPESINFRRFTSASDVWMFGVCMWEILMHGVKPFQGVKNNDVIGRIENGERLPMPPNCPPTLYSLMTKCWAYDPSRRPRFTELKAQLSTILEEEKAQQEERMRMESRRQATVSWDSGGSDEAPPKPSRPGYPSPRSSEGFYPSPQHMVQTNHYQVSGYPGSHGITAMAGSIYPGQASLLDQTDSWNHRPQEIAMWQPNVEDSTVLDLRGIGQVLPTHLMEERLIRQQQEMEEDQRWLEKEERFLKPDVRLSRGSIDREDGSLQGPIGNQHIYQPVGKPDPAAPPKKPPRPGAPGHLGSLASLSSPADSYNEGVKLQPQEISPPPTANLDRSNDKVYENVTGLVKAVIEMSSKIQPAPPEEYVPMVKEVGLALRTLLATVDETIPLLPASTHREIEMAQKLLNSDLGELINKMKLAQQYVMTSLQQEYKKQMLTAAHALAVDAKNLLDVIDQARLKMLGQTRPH
# PLK3 (human), sequence (Q9H4B4 whole entry, looked up): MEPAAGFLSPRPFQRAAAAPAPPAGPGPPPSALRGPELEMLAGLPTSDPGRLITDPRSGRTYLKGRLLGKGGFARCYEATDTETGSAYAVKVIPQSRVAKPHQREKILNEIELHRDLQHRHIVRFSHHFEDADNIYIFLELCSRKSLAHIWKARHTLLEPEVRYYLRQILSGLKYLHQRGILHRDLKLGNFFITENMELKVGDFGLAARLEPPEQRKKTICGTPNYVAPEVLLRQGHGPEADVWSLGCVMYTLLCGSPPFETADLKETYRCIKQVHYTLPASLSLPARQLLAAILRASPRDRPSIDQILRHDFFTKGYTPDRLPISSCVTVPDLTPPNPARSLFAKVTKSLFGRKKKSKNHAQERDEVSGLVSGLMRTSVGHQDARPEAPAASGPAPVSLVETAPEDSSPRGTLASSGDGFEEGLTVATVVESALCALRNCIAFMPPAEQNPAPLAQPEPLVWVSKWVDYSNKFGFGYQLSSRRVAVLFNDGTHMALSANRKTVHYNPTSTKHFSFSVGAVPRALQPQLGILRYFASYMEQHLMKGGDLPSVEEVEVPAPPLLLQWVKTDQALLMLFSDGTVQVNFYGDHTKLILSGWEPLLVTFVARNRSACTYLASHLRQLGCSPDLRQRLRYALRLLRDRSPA
# PTK2B (human), sequence (Q14289 whole entry, looked up): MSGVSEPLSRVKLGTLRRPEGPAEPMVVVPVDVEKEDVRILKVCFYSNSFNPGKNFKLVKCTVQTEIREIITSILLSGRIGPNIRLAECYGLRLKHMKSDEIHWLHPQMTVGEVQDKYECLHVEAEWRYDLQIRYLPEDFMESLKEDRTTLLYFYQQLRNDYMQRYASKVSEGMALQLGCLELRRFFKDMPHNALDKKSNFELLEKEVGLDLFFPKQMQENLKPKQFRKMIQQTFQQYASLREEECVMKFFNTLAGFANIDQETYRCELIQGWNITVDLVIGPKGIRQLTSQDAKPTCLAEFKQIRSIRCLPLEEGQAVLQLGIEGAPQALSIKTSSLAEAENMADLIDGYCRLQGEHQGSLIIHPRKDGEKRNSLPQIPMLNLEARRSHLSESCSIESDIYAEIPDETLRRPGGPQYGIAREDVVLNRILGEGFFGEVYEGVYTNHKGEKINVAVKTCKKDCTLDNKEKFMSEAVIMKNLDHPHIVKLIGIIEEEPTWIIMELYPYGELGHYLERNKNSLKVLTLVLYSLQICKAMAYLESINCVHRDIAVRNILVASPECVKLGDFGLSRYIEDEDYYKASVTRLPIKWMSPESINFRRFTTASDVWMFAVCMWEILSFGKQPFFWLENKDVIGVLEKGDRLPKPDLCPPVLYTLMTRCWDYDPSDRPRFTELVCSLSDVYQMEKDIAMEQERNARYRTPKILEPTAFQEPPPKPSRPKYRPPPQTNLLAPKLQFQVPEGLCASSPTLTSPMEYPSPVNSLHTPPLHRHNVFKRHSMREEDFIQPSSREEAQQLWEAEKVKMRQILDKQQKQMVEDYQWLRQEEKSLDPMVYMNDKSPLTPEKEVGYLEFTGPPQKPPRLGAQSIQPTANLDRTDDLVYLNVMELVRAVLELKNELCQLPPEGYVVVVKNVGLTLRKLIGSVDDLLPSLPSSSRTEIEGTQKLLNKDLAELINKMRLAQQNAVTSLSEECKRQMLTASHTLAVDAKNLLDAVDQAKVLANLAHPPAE
# DCLK1 (human), sequence (O15075 whole entry, looked up): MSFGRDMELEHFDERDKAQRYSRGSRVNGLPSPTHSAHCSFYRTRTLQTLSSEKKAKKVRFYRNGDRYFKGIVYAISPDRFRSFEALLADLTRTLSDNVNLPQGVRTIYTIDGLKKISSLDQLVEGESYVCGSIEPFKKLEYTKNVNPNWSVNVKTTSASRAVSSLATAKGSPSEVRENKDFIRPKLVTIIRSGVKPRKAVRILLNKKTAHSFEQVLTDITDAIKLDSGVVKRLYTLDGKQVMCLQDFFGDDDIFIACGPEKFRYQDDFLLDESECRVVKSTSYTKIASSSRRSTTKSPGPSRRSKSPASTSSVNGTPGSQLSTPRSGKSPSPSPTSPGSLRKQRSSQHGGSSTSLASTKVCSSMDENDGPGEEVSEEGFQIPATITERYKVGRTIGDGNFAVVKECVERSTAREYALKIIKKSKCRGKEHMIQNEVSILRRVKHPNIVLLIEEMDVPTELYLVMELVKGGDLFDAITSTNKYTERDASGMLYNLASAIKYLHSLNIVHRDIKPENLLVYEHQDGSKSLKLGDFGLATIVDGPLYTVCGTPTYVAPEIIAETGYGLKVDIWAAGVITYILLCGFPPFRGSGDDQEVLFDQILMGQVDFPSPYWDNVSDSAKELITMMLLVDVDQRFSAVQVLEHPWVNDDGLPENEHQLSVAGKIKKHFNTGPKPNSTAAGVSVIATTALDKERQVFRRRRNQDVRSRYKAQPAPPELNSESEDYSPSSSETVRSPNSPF
smiles,measurement,setting,value
COc1cc(N2CCC(C)(O)CC2)ccc1Nc1ncc2c(n1)N(C1CCCC1)CCC(=O)N2C,"kinase still bound, per cent of control",ALK (human),22%
same,"kinase still bound, per cent of control",CAMKK2 (human),20%
same,"kinase still bound, per cent of control",DAPK2 (human),29%
same,"kinase still bound, per cent of control",DAPK3 (human),34%
same,"kinase still bound, per cent of control",DCLK1 (human),20%
same,"kinase still bound, per cent of control",EGFR (human),17% and 29%
same,"kinase still bound, per cent of control",[1],6.2%
same,"kinase still bound, per cent of control",[2],10%
same,"kinase still bound, per cent of control",[3],4%
same,"kinase still bound, per cent of control",[4],10%
same,"kinase still bound, per cent of control",[5],14%
same,"kinase still bound, per cent of control",[6],17%
same,"kinase still bound, per cent of control",[7],6.6%
same,"kinase still bound, per cent of control",[8],6.6%
same,"kinase still bound, per cent of control",FER (human),18%
same,"kinase still bound, per cent of control",FGFR4 (human),34%
same,"kinase still bound, per cent of control",GAK (human),1.2%
same,"kinase still bound, per cent of control",IGF1R (human),14%
same,"kinase still bound, per cent of control",INSR (human),28%
same,"kinase still bound, per cent of control",INSRR (human),30%
same,"kinase still bound, per cent of control",MET (human),9.1%
same,"kinase still bound, per cent of control",MKNK2 (human),13%
same,"kinase still bound, per cent of control",MYLK (human),31%
same,"kinase still bound, per cent of control",PLK1 (human),0.2%
same,"kinase still bound, per cent of control",PLK3 (human),1.8%
same,"kinase still bound, per cent of control",PLK4 (human),8.2%
same,"kinase still bound, per cent of control",PTK2 (human),6.2%
same,"kinase still bound, per cent of control",PTK2B (human),3.1%
same,"kinase still bound, per cent of control",RPS6KA2 KD2 (human),30%
same,"kinase still bound, per cent of control",SLK (human),31%
same,"kinase still bound, per cent of control",STK33 (human),12%
same,"kinase still bound, per cent of control",TNK1 (human),11%
same,Kd,TTK (human) [9],0.0205 µM
same,"kinase still bound, per cent of control",TTK (human) [9],3.8%
same,"kinase still bound, per cent of control",ULK2 (human),26%
same,IC50,TTK (human) [10],0.254 µM
COc1cc(N2CCC(O)CC2)ccc1Nc1ncc2c(n1)N(c1ccccc1)CCC(=O)N2C,"kinase still bound, per cent of control",EGFR (human),24%
same,"kinase still bound, per cent of control",[1],12%
same,"kinase still bound, per cent of control",[2],21%
same,"kinase still bound, per cent of control",[3],21%
same,"kinase still bound, per cent of control",[4],30%
same,"kinase still bound, per cent of control",[5],23%
same,"kinase still bound, per cent of control",[6],30%
same,"kinase still bound, per cent of control",[7],25%
same,"kinase still bound, per cent of control",[8],15%
same,"kinase still bound, per cent of control",GAK (human),2%
same,"kinase still bound, per cent of control",PLK1 (human),1.2%
same,"kinase still bound, per cent of control",PLK3 (human),21%
same,"kinase still bound, per cent of control",PTK2 (human),19%
same,"kinase still bound, per cent of control",PTK2B (human),22%
same,"kinase still bound, per cent of control",TTK (human) [9],5%
